Where only a bound is given, the exact number is not on record here.

T1 sequence (P0DPI0 2-448 limits assumed): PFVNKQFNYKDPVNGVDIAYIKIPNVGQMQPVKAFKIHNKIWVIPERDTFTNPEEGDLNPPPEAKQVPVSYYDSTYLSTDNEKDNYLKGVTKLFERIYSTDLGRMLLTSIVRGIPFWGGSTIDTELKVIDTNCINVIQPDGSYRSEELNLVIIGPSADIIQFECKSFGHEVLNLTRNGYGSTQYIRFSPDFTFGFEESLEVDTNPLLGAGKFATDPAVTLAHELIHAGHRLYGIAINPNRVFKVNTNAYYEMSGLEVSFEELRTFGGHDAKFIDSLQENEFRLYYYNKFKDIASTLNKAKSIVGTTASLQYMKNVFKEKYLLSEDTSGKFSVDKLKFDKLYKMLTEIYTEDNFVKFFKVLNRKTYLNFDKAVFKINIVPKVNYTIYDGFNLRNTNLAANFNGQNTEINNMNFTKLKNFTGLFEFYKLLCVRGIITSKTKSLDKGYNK

The first assay has as its target T1, Botulinum neurotoxin type A (Clostridium botulinum, UniProt P0DPI0). As to the kind of experiment: Inhibition of Clostridium botulinum BoNT/A light chain (1 to 429 amino acid) using Abz-Thr-dArg-Ile-Asp-Glu-Ala-Asn-Gln-Arg-Ala-Thr-Lys-Nle-Lys(Dnp)-NH2 as substrate after 10 mins by FRET assay.
The Ki is the dissociation constant of the complex between target and ligand, obtained from inhibition or displacement. In the case of `Cc1ccc(OCC(=O)NC(Cc2ccccc2)C(=O)NO)cc1` (stereo not given), the Ki was over 300 µM. On the same count and under the same terms, then `O=C(NC(Cc1c[nH]c2ccccc12)C(=O)NO)c1ccco1` (stereo not given), with over 300 µM; and `Cc1[nH]c2ccccc2c1C1c2ccccc2C(=O)N1CC(=O)NO` (stereo not given), with 142 µM. Still for that read-out and setting: then `Cc1ccc(C(=O)NC(Cc2c[nH]c3ccccc23)C(=O)NO)o1` (stereo not given), with over 300 µM. Compound `CCCCOc1ccccc1-c1cc(C(=O)NO)[nH]n1` yielded a Ki of over 300 µM. Still for that read-out and setting: under `Cc1nnc(SCC(=O)NO)n1Cc1ccccc1` stands over 300 µM; under `O=C(COc1ccccc1)NC(Cc1ccccc1)C(=O)NO` (stereo not given), over 300 µM; under `O=C(CC1C(=O)NCCN1C/C=C/c1ccccc1)NO` (stereo not given), over 300 µM. On the same count and under the same terms, then `Cc1nnc(SCc2ccccc2C(=O)NO)n1C`, with over 300 µM; and `O=C(NO)c1ccccc1-c1ccccc1C(=O)Nc1ccccn1`, with 21 µM; and `O=C(CC1SC(N2CCCC2)=NC1=O)NO` (stereo not given), with over 300 µM.

Regarding `O=C(Cn1nc(Cc2ccccc2)c2ccccc2c1=O)NO`, the affinity corresponds to a Ki of 93 µM. For the compound `O=C(Cc1nc(-c2cccnc2)sc1-c1ccc(Cl)cc1)NO`, the Ki was over 300 µM. Same read-out and setting: under `O=C(CNC(=O)c1ccc2noc(-c3ccccc3)c2c1)NO` stands 77 µM. On the same count and under the same terms, under `O=C(NO)c1cccc(-c2ccc(CNCC3CCCO3)o2)c1` (stereo not given) stands over 300 µM. Consider `Cc1nc(C)c(CCC(=O)NO)c(=O)[nH]1`, for which the Ki is over 300 µM. The same measure, in the same setting: under `O=C(NC(Cc1c[nH]c2ccccc12)C(=O)NO)c1ccc(F)cc1` (stereo not given) stands 212 µM; under `O=C(CC1Sc2ccccc2NC1=O)NO` (stereo not given), over 300 µM; under `Cc1ccc(CN(CC(=O)NO)S(=O)(=O)c2ccccc2)cc1`, 142 µM. Same read-out and setting: then `O=C(NC(Cc1c[nH]c2ccccc12)C(=O)NO)c1ccc(Cl)s1` (stereo not given), with over 300 µM; and `O=C(CN1C(=O)c2ccccc2C1c1c[nH]c2ccccc12)NO` (stereo not given), with over 300 µM.

For the compound `Cc1cc(C(=O)NC(Cc2c[nH]c3ccccc23)C(=O)NO)c(C)o1` (stereo not given), the Ki is over 300 µM. Still for that read-out and setting: under `CCC(C)C(C(=O)NO)N1C(=O)c2ccccc2C1=O` (stereo not given) stands 188 µM. In the case of `NC(=O)C1CC(C(=O)NO)=NN1c1ccccc1` (stereo not given), the Ki was over 300 µM. In the case of `COc1ccc(CN2CCNC(=O)C2CC(=O)NO)cc1OC` (stereo not given), the Ki was over 300 µM. Take `O=C(CCC(=O)N(c1ccccc1)c1ccccc1)NO`: the Ki was over 300 µM. Still for that read-out and setting: under `COc1ccccc1-c1cc(C(=O)NO)[nH]n1` stands over 300 µM; under `O=C(CCN1C(=O)c2ccccc2C1c1c[nH]c2ccccc12)NO` (stereo not given), 194 µM. Still for that read-out and setting: under `O=C(NC(Cc1ccccc1)C(=O)NO)C1CCCCC1` (stereo not given) stands over 300 µM.

The target in a further assay is T1, Botulinum neurotoxin type A.
For `O=C(CN(Cc1ccccc1)Cc1ccccc1)NO`, the affinity corresponds to a Ki of 90 µM.
